Experiment [1] is described as follows: Selectivity index, ratio of IC50 for cytotoxicity against human THLE-2 cells to IC50 for antiproliferative activity against human KG-1 cells.
For a further experiment, the system named is KG-1. Description: Antiproliferative activity against human KG-1 cells assessed as reduction in cell viability incubated for 72 hrs by cell titer glo assay. It counts as functional, cell-based. The settings on record: KG-1, 72 h. (In ATP-based viability assays light output follows the ATP content of the culture.)
For the next experiment, the system named is THLE-2. Description: Cytotoxicity against human THLE-2 cells assessed as cell viability incubated for 72 hrs by cell titer glo assay. It counts as cell-based. The conditions noted are these: THLE-2, 72 h.
The test system of another experiment is NB-4. In words: Antiproliferative activity against human NB4 cells assessed as reduction in cell viability incubated for 72 hrs by cell titer glo assay. The conditions noted are these: NB-4, 72 h. Type of experiment: functional, cell-based.
Another experiment deals with OCI-AML2. In words: Antiproliferative activity against human OCI-AML2 cells assessed as reduction in cell viability incubated for 72 hrs by cell titer glo assay. It counts as functional, cell-based. The conditions noted are these: OCI-AML2, 72 h.
A further experiment deals with U-937. Description: Antiproliferative activity against human U937 cells assessed as reduction in cell viability incubated for 72 hrs by cell titer glo assay. The settings on record: U-937, 72 h. Type of experiment: functional, cell-based.
For another experiment, the system named is MOLM-13. In words: Antiproliferative activity against human MOLM-13 cells assessed as reduction in cell viability incubated for 72 hrs by cell titer glo assay. Type of experiment: functional, cell-based. The settings on record: MOLM-13, 72 h.
In the next experiment the test system is Kasumi 1. In words: Antiproliferative activity against human Kasumi 1 cells assessed as reduction in cell viability incubated for 72 hrs by cell titer glo assay. Type of experiment: functional, cell-based. The conditions noted are these: Kasumi 1, 72 h.
The next experiment has as its system HL-60. In words: Antiproliferative activity against human HL-60 cells assessed as reduction in cell viability incubated for 72 hrs by cell titer glo assay. It counts as functional, cell-based. The conditions noted are these: HL-60, 72 h.
For the next experiment, the system named is MV4-11. In words: Antiproliferative activity against human MV4-11 cells assessed as reduction in cell viability incubated for 72 hrs by cell titer glo assay. Type of experiment: functional, cell-based. The settings on record: MV4-11, 72 h.
The test system of a further experiment is OCI-AML-3. Description: Antiproliferative activity against human OCI-AML3 cells assessed as reduction in cell viability incubated for 72 hrs by cell titer glo assay. Type of experiment: functional, cell-based. The conditions noted are these: OCI-AML-3, 72 h.
The subject of the next experiment is KG-1a. Description: Antiproliferative activity against human KG-1a cells assessed as reduction in cell viability incubated for 72 hrs by cell titer glo assay. It counts as functional, cell-based.

Each structure is given as a SMILES string. pIC50: −log10 of the molar value.

Take `O=C1CCC(N2Cc3cc(CNC(=O)C(=O)c4ccccc4)ccc3C2=O)C(=O)N1` (stereo not drawn): the “Ratio IC50” value in experiment [1] was 22. The pIC50 (commonly the IC50 on a negative log10 scale, so that one unit is a factor of ten) with KG-1 was 8.05; with THLE-2 it was 6.71.
As for `O=C1CCC(N2Cc3cc(CNC(=O)c4ccccc4)ccc3C2=O)C(=O)N1` (stereo not drawn), the negative logarithm of the IC50 (pIC50) in the experiment on KG-1 and with THLE-2 was under 5.00 in each case.
Turning to `Cc1ccc(NC(=O)NCc2ccc3c(c2)CN(C2CCC(=O)NC2=O)C3=O)cc1Cl` (stereo not drawn), the pIC50 in the experiment with NB-4 is 8.70; in the experiment on OCI-AML2, 7.68; in the experiment on KG-1, 8.15; in the experiment with U-937, 7.96; with MOLM-13, 8.10; with Kasumi 1 it was 8.00. Besides, the pIC50 is 7.96 in the experiment with THLE-2; 8.52 in the experiment on HL-60; 8.30 in the experiment on MV4-11; 7.14 in the experiment on OCI-AML-3; 8.10 with KG-1a.
With `CC(C)(C(=O)NCc1ccc2c(c1)CN(C1CCC(=O)NC1=O)C2=O)c1ccccc1` (stereo not drawn), the pIC50 in the experiment on KG-1 and in the experiment on THLE-2 was under 5.00 throughout.

For the origin of these results see ChEMBL document CHEMBL4706692, “CC-90009: A Cereblon E3 Ligase Modulating Drug That Promotes Selective Degradation of GSPT1 for the Treatment of Acute Myeloid Leukemia” (J Med Chem, 2021).
